Test results reported in ChEMBL document CHEMBL3045899, “New asperxanthone and asperbiphenyl from the marine fungus Aspergillus sp” (2009).

system: Tobacco mosaic virus; test: Inhibitory activity against Tobacco mosaic virus (TMV) inoculated in Nicotiana tabacum L. cv.K326 leaf assessed as inhibition of virus multiplication at 0.2 mg/ml measured by leaf disk method (reference value: 0%); assay type: functional

Question: Which inhibition at 200 µg/mL does the source give for `CCCCCCCC/C=C/C=C/CCCCCCCCCCCCCCCCCCCCCC(=O)OC(CO)CO` here?
Answer: Its inhibition at 200 µg/mL is 16.3%.

Question: With `CCCCCCCC/C=C/C=C/CCCCCCCCCCCCCC/C=C/C=C/CCCC(=O)OC(CO)CO` as the compound, how does the inhibition at 200 µg/mL read?
Answer: The inhibition at 200 µg/mL was 14.3%.

Question: How did the inhibition at 200 µg/mL turn out when `CCCCCCCCCCCCCCCCCCCCCCCCCC/C=C/C=C/C=C/CCC(=O)OC(CO)CO` was run?
Answer: Its inhibition at 200 µg/mL is 13.9%.

Question: How did the inhibition at 200 µg/mL turn out when `CCCCCCCC/C=C/C=C/CCCCCCCCCCCCCC/C=C/C=C/CCCC(=O)OCC(O)CO` (centres undefined) was run?
Answer: The inhibition at 200 µg/mL was 17.4%.

Question: `CCCCCCCCCC/C=C/C=C/CCCC(=O)OCC(O)CO` (centres undefined) was tested. Which inhibition at 200 µg/mL did it give?
Answer: Its inhibition at 200 µg/mL is 12.5%.

Question: How did the inhibition at 200 µg/mL turn out when `CCCCCCCCCCC/C=C/C=C/CCCC(=O)OCC(O)CO` (centres undefined) was run?
Answer: The inhibition at 200 µg/mL was 14.9%.

Question: How did the inhibition at 200 µg/mL turn out when `CCCCCCC/C=C/C=C/CCCC(=O)OC(CO)CO` was run?
Answer: Its inhibition at 200 µg/mL is 14.2%.

Question: For `Cc1c(O)c(-c2c(O)c(C)c3c(c2O)CO[C@H](C)[C@H]3C)c(O)c2c1[C@@H](C)[C@H](C)OC2` [ASPERBIPHENYL], which inhibition at 200 µg/mL is on record?
Answer: The inhibition at 200 µg/mL was 35.5%.

Question: Which inhibition at 200 µg/mL does the source give for `COc1cc2oc3cccc(O)c3c(=O)c2c2c1[C@@H]1C=CO[C@@H]1O2` [ASPERXANTHONE] here?
Answer: Its inhibition at 200 µg/mL is 62.9%.
